# The supplement of paper PMC10307832
# Tests used:
# Experiment in all cases: relative viability (nuclei count vs DMSO), 5 days (fraction); higher = more cells survive
# RU-SKI 43 + Linsitinib = compound: CC[C@@H](C)CNCC(=O)N1CCC2=C([C@@H]1COC3=CC=CC(=C3)C)C=CS2 [RU-SKI 43] + C[C@]1(O)C[C@@H](c2nc(-c3ccc4ccc(-c5ccccc5)nc4c3)c3c(N)nccn32)C1 [Linsitinib] (partner 1 µM)
# Outline: (§1)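 A single step with final 0.05% Triton X-100, 1% formaldehyde and 1 ug/ml Hoechst fixed the cells and stained nuclei 5 days after treatment. Lung cancer cell lines in 1536-well plates had been treated by pin tool the day after seeding with one drug alone or a fixed anchor-drug dose plus five library-drug doses (not always all listed) in √10 steps, and nuclei were counted on 4× images. Relative viability is the ratio of nuclei in treated wells to nuclei in vehicle wells, taken as the median of duplicate plates.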
# Irinotecan + Navitoclax = compound: CCc1c2c(nc3ccc(OC(=O)N4CCC(N5CCCCC5)CC4)cc13)-c1cc3c(c(=O)n1C2)COC(=O)[C@]3(O)CC [Irinotecan] + CC1(C)CCC(c2ccc(Cl)cc2)=C(CN2CCN(c3ccc(C(=O)NS(=O)(=O)c4ccc(N[C@H](CCN5CCOCC5)CSc5ccccc5)c(S(=O)(=O)C(F)(F)F)c4)cc3)CC2)C1 [Navitoclax] (partner 0.5 µM)
# Outline: as §1
# MK-8033 + Foretinib = compound: Cn1cc(-c2cnc3ccc4ccc(CS(=O)(=O)NCc5ccccn5)cc4c(=O)c3c2)cn1 [MK-8033] + COc1cc2c(Oc3ccc(NC(=O)C4(C(=O)Nc5ccc(F)cc5)CC4)cc3F)ccnc2cc1OCCCN1CCOCC1 [Foretinib] (partner 0.25 µM)
# Outline: as §1
# MK-8033 + Alpelisib = compound: Cn1cc(-c2cnc3ccc4ccc(CS(=O)(=O)NCc5ccccn5)cc4c(=O)c3c2)cn1 [MK-8033] + Cc1nc(NC(=O)N2CCC[C@H]2C(N)=O)sc1-c1ccnc(C(C)(C)C(F)(F)F)c1 [Alpelisib] (partner 2 µM)
# Outline: as §1
Cell Line,relative viability (RU-SKI 43 + Linsitinib; first compound 0.1 µM),relative viability (RU-SKI 43 + Linsitinib; first compound 0.3162 µM),relative viability (RU-SKI 43 + Linsitinib; first compound 1 µM),relative viability (RU-SKI 43 + Linsitinib; first compound 3.162 µM),relative viability (RU-SKI 43 + Linsitinib; first compound 10 µM),relative viability (Irinotecan + Navitoclax; first compound 0.6325 µM),relative viability (Irinotecan + Navitoclax; first compound 2 µM),relative viability (Irinotecan + Navitoclax; first compound 6.325 µM),relative viability (Irinotecan + Navitoclax; first compound 20 µM),relative viability (MK-8033 + Foretinib; first compound 0.02 µM),relative viability (MK-8033 + Foretinib; first compound 0.06325 µM),relative viability (MK-8033 + Foretinib; first compound 0.2 µM),relative viability (MK-8033 + Foretinib; first compound 0.6325 µM),relative viability (MK-8033 + Foretinib; first compound 2 µM),relative viability (MK-8033 + Alpelisib; first compound 0.02 µM),relative viability (MK-8033 + Alpelisib; first compound 0.06325 µM),relative viability (MK-8033 + Alpelisib; first compound 0.2 µM),relative viability (MK-8033 + Alpelisib; first compound 0.6325 µM),relative viability (MK-8033 + Alpelisib; first compound 2 µM)
NCI-H460,0.789,1.84,1.08,1.02,0.695,0.779,0.165,0.0691,0.053,1.02,0.961,0.947,1.02,1.01,0.496,0.368,0.348,0.4,0.435
NCI-H2087,1.04,1.08,0.95,0.853,1.02,0.468,0.26,0.184,0.218,1.03,1.11,0.889,1.16,0.957,1.15,1.05,1.05,1.05,1
EKVX,0.948,1.24,0.977,1.05,1,0.924,0.74,0.344,0.157,0.849,0.702,0.79,0.48,0.968,0.812,0.747,0.787,0.808,0.903
IA-LM,0.623,0.563,0.512,0.552,0.577,0.574,0.246,0.15,0.0454,0.989,1.03,1.17,1.15,1.12,0.787,0.536,0.723,0.736,0.729
NCI-H1355,0.941,0.864,0.844,0.97,0.84,0.812,0.28,0.195,0.237,0.888,0.886,0.961,0.862,0.909,0.766,0.74,0.72,0.87,0.786
PC-3 [JPC-3],0.885,0.956,1.03,1.02,0.866,0.703,0.436,0.307,0.333,0.977,0.952,0.994,1,1.03,0.959,,0.998,1,0.956
NCI-H2085,0.929,0.875,1.01,0.917,0.772,1.03,0.862,0.493,0.507,0.914,0.75,1.23,0.919,0.951,0.873,0.936,0.925,0.823,0.971
NCI-H1993,0.745,0.732,0.661,0.721,0.762,0.97,0.834,0.588,0.812,0.696,0.774,0.789,0.73,0.949,0.612,0.611,0.649,0.714,0.675
NCI-H2228,0.858,0.507,0.828,0.885,0.427,0.875,0.529,0.405,0.51,0.96,0.806,0.673,0.721,0.749,0.815,0.551,0.629,0.768,0.841
LK-2,0.74,0.564,0.674,0.495,0.889,0.858,0.754,0.406,0.255,1.05,,1.13,1.42,1.08,1.22,1.04,1.02,1.17,1
LC-2-ad,0.818,0.831,0.899,0.857,0.726,0.287,0.282,0.169,0.167,0.94,0.867,,0.981,0.944,0.888,0.864,0.825,0.823,0.849
NCI-H596,1.14,1.07,1.08,1.02,0.96,0.932,0.752,0.412,0.443,0.763,0.733,0.957,0.477,0.886,0.436,0.511,0.462,0.46,0.477
LCLC-97TM1,0.221,,0.172,0.201,0.182,0.254,0.256,0.218,0.163,0.9,0.924,0.925,0.951,0.969,0.199,0.234,0.205,0.207,0.235
SK-LU-1,1.06,1.22,1.26,1.18,0.917,0.225,0.334,0.296,0.263,0.843,0.813,0.837,0.849,0.815,1,1.04,0.806,1.02,0.988
NCI-H1395,0.994,1.43,1.1,0.968,1.15,,0.677,0.521,0.344,0.989,0.855,0.939,0.98,0.994,1.2,1,1.16,1.13,1.05
COR-L23,0.971,0.847,0.815,0.83,1.09,0.413,0.261,0.154,0.115,0.934,0.997,0.986,1.04,0.993,0.71,0.864,0.74,0.828,0.645
